Laboratory results reported in patent publication US20250368633A1, “AZEPINE FUSED RING COMPOUND AS RIPK1 INHIBITOR AND USE THEREOF” (ARTIVILA BIOPHARMA, priority 2022, published 2025).

Columns and labels:
[1] = system: U937 cells; assay: Inhibition rate of compound (1 μM) on necroptosis of U937 cells (TSZ-induced, CellTiter-Glo); format: cell-based; conditions: TSZ (hTNF-α, SM-164, Z-VAD-FMK) 20 hours
Protocol: (§1) The biological activity of RIPK1 inhibitors was further evaluated in the inhibition of necroptosis in U937 cells. U937 cell line was purchased from Huatuo Biotechnology and stored in liquid nitrogen. U937 cells were revived before the experiment and cultured in RPMI-1640 medium (supplemented with 10% fetal bovine serum, 100 U/mL penicillin and 100 μg/mL streptomycin) at 37° C., 5% CO2. The activity was further evaluated by the cellular ATP level detected by the Promega CellTiter-Glo 2.0 Assay cell viability assay kit (Catalog No.: G9242).
The experimental method was briefly described as below. U937 cells in the logarithmic growth phase were collected by centrifugation. Cells were diluted at the density of 5×10^5 cells/mL with RPMI 1640 medium (supplemented with 10% fetal bovine serum, 100 U/mL penicillin and 100 μg/mL streptomycin). The cell suspension was added to a white sterile 384-well cell culture plate at 15 μL/well. The test compound was dissolved in DMSO to prepare a 10 mM stock solution and diluted to 10 μM with culture medium. At the same time, a control with the same DMSO volume was set up. Two replicates were added for each concentration. The diluted compound was added to the 384-well cell culture plate containing cells at 2.5 µL/well and incubated at 37° C., 5% CO2 for 15 minutes. Z-VAD-FMK (Biyuntian, catalog number: C1202-5 mg) was dissolved in DMSO to prepare a 20 mM stock solution. SM-164 (Biyuntian, catalog number: SC0114-10 mM) was dissolved in DMSO to prepare a 10 mM stock solution and diluted to 0.1 mM. hTNF-α (Sino Biological Inc., catalog number: 10602-HNAE) was dissolved in sterile water to 10 μg/mL. RPMI 1640 medium (supplemented with 10% fetal bovine serum, 100 U/mL penicillin and 100 μg/mL streptomycin) was used to prepare the TSZ mixture, containing 133.3 μM Z-VAD-FMK, 33.3 ng/ml hTNF-α and 0.3 μM SM-164. After 15 minutes' coculture of compounds and cells, 7.5 μL of TSZ mixture was added to each well, mixed evenly, and cultured at 37° C., 5% CO2 for 20 hours. After 20 hours, the culture plate was removed and placed at room temperature for 30 minutes. 10 μL of CellTiter-Glo reagent pre-equilibrated at room temperature was added to each well and incubated for 10 minutes from light. The chemiluminescence was read by a microplate reader. The inhibition rate was calculated as Inh %=(1−(no TSZ-TSZ & compound)/(no TSZ-TSZ))×100.

[2] = system: U937 cells; assay: EC50 of necroptosis inhibition in U937 cells (TSZ-induced, CellTiter-Glo); format: cell-based; conditions: Homo sapiens, U-937; TSZ (hTNF-α, SM-164, Z-VAD-FMK) 20 hours; 10 concentration points; read-out: EC50 intervals of necroptosis inhibition in U937 cells
Protocol: as §1
The experimental method was briefly described as below. U937 cells in the logarithmic growth phase were collected by centrifugation. Cells were diluted to the cell density of 5×10^5 cells/mL with RPMI 1640 medium (supplemented with 10% fetal bovine serum, 100 U/mL penicillin and 100 μg/mL streptomycin). Cell suspension was added to a white sterile 384-well cell culture plate at 15 μL/well. The test compound was dissolved in DMSO to prepare a 10 mM stock solution. The compound was serially diluted with culture medium at a ratio of 1:3, for a total of 10 concentration points. A control with the same DMSO volume was set, with two replicates for each concentration. The diluted compound was added to the 384-well cell culture plate containing cells at 2.5 μL/well and incubated at 37° C., 5% CO2 for 15 minutes. Z-VAD-FMK (Biyuntian, catalog number: C1202-5 mg) was dissolved in DMSO to prepare a 20 mM stock solution. SM-164 (Biyuntian, catalog number: SC0114-10 mM) was dissolved in DMSO to prepare a 10 mM stock solution and diluted to 0.1 mM. hTNF-α (Sino Biological Inc., catalog number: 10602-HNAE) was dissolved in sterile water to 10 μg/mL. RPMI 1640 medium (supplemented with 10% fetal bovine serum, 100 U/mL penicillin and 100 μg/mL streptomycin) was used to prepare the TSZ mixture, containing 133.3 μM Z-VAD-FMK, 33.3 ng/ml hTNF-α and 0.3 μM SM-164. After 15 minutes' coculture of compounds and cells, 7.5 μL of TSZ mixture was added to each well, mixed evenly, and cultured at 37° C., 5% CO2 for 20 hours. After 20 hours, the culture plate was removed and placed at room temperature for 30 minutes. Then, 10 μL of CellTiter-Glo reagent pre-equilibrated at room temperature was added to each well and incubated. After 10 minutes' incubation at room temperature in the dark, the chemiluminescence were measured using a microplate reader. The inhibition rate was calculated as Inh %=(1−(no TSZ-TSZ & compound)/(no TSZ-TSZ))×100. The EC50 was obtained by fitting the nonlinear regression curve log [inhibitor] vs. response−variable slope (four parameters) in GraphPad Prism.

[3] = target: T1, RIPK1 kinase (Homo sapiens, UniProt Q13546); assay: In vitro RIPK1 kinase activity assay (ADP-Glo), inhibition by compounds at 1 μM; format: biochemical; conditions: compound 1 μM; ATP 10 μM; MBP substrate 100 μg/mL; read-out: RIPK1 kinase activity inhibition rate range
T1 construct: purchased Promega VA7593
T1 sequence (Q13546 1-671): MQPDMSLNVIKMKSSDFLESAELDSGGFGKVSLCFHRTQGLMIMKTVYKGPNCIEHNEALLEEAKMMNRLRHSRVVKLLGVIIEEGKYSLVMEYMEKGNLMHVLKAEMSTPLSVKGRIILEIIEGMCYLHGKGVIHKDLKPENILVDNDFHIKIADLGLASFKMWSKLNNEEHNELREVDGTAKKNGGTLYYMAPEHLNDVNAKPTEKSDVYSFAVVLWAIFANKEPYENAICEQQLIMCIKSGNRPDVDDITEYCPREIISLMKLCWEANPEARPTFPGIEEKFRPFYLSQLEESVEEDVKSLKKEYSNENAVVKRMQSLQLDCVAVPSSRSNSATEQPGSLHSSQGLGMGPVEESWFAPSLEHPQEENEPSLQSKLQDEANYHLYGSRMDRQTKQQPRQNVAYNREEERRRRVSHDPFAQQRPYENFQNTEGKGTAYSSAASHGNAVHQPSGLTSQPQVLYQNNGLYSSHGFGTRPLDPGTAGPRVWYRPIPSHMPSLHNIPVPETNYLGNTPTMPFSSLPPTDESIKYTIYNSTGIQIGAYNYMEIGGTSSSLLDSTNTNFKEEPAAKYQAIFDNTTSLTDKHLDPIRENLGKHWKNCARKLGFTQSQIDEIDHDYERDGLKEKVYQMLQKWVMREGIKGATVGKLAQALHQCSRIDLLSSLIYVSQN
Protocol: RIPK1 kinase activity was assayed using the ADP-Glo assay and RIPK1 kinase reaction system (Promega, catalog number: VA7593). The RIPK1 kinase activity assay was performed according to the Promega kit manual.
The experimental method was briefly described as below. The concentration of RIPK1 kinase in the RIPK1 kinase reaction system was determined by kinase titration and S/B10. Compounds were diluted with 1× kinase buffer D (1% DMSO), and 1 μL of 100 μM compound DMSO stock solution was added to 19 μL 1× kinase buffer D. RIPK1 kinase was diluted with 1× kinase buffer D. 2.5×ATP/substrate was diluted with 1× kinase buffer D. The final concentration of ATP in the kinase reaction system was 10 μM, and the final concentration of MBP substrate was 100 μg/mL. 1 μL of diluted compound and 2 μL of diluted RIPK1 kinase were mixed, incubated at room temperature for 15 minutes, 2 μL of 2.5×ATP/substrate was added, mixed, and incubated at room temperature for 1 hour. 5 μL of ADP-Glo reagent was added to each well and incubated at room temperature for 1 hour. 10 μL of ADP detection reagent was added to each well and incubated at room temperature for another 0.5-1 hour. The chemiluminescent signal was read by a microplate reader and the inhibition rate of kinase activity was calculated.

Structure (SMILES)	inhibition at 1 µM [3]	Inhibition rate range of compounds (1 μM) on U937 cell necroptosis [1]	EC50 [2]
CN1C(=O)[C@@H](NC(=O)C(=O)NCCc2ccccc2)COc2ccc(C#Cc3ccncc3)cc21 [Example 12, (S)-N^1-(5-methyl-4-oxo-7-(pyridin-4-ylethynyl)-2,3,4,5-tetrahydrobenzo[b][1,4]oxazepin-3-yl)-N^2-phenethyloxalamide]	≥ 75%	A (A: ≥90%)	< 100 nM
CN1C(=O)[C@@H](NC(=O)C(=O)NCCc2ccccc2)COc2ccc(C#Cc3ccccn3)cc21 [Example 14, (S)—N^1-(5-methyl-4-oxo-7-(pyridin-2-ylethynyl)-2,3,4,5-tetrahydrobenzo[b][1,4]oxazepin-3-yl)-N^2-phenethyloxalamide]	≥ 75%	A (A: ≥90%)	< 100 nM
CN1C(=O)[C@@H](NC(=O)C(=O)NCCc2ccccc2)COc2ccc(C#Cc3cncnc3)cc21 [Example 15, (S)—N^1-(5-methyl-4-oxo-7-(pyrimidin-5-ylethynyl)-2,3,4,5-tetrahydrobenzo[b][1,4]oxazepin-3-yl)-N^2-phenethyloxalamide]	≥ 75%	A (A: ≥90%)	< 100 nM
CN1C(=O)[C@@H](NC(=O)C(=O)NCCc2ccccc2)COc2ccc(C#Cc3cccs3)cc21 [Example 16, (S)—N^1-(5-methyl-4-oxo-7-(thiophen-2-ylethynyl)-2,3,4,5-tetrahydrobenzo[b][1,4]oxazepin-3-yl)-N^2-phenethyloxalamide]	50 to 74%	A (A: ≥90%)	< 100 nM
C#Cc1ccc2c(c1)N(C)C(=O)[C@@H](NC(=O)C(=O)NCCc1ccccc1)CO2 [Example 20, (S)—N^1-(7-ethynyl-5-methyl-4-oxo-2,3,4,5-tetrahydrobenzo[b][1,4]oxazepin-3-yl)-N^2-phenethyloxalamide]	50 to 74%	A (A: ≥90%)	< 100 nM
CN1C(=O)[C@@H](NC(=O)C(=O)NCCc2ccccc2)COc2ccc(C#CC3CCNCC3)cc21 [Example 23, (S)—N^1-(5-methyl-4-oxo-7-(piperidin-4-ylethynyl)-2,3,4,5-tetrahydrobenzo[b][1,4]oxazepin-3-yl)-N^2-phenethyloxalamide]	50 to 74%	A (A: ≥90%)	< 100 nM
CN1C(=O)[C@@H](NC(=O)C(=O)NCCc2ccccc2)COc2ccc(C#CC3=CCCCC3)cc21 [Example 26, (S)—N^1-(7-(cyclohex-1-en-1-ylethynyl)-5-methyl-4-oxo-2,3,4,5-tetrahydrobenzo[b][1,4]oxazepin-3-yl)-N^2-phenethyloxalamide]	≥ 75%	A (A: ≥90%)	< 100 nM

Second part, led by results:

inhibition at 1 µM [3]	Structure (SMILES)	Inhibition rate range of compounds (1 μM) on U937 cell necroptosis [1]	EC50 [2]
50 to 74%	CN1C(=O)[C@@H](NC(=O)C(=O)NCCc2ccccc2)COc2ccc(C#Cc3cc(F)cc(F)c3)cc21 [Example 27, (S)—N^1-(7-((3,5-difluorophenyl)ethynyl)-5-methyl-4-oxo-2,3,4,5-tetrahydrobenzo[b][1,4]oxazepin-3-yl)-N^2-phenethyloxalamide]	A (A: ≥90%)	< 100 nM
≥ 75%	CN1C(=O)[C@@H](NC(=O)C(=O)NCCc2ccccc2)COc2ccc(C#CCOc3ccccc3)cc21 [Example 28, (S)—N^1-(5-methyl-4-oxo-7-(3-phenyloxyprop-1-yn-1-yl)-2,3,4,5-tetrahydrobenzo[b][1,4]oxazepin-3-yl)-N^2-phenethyloxalamide]	A (A: ≥90%)	< 100 nM
50 to 74%	C[C@H](O)C#Cc1ccc2c(c1)N(C)C(=O)[C@@H](NC(=O)C(=O)NCCc1ccccc1)CO2 [Example 30, N^1-((S)-7-((S)-3-hydroxybut-1-yn-1-yl)-5-methyl-4-oxo-2,3,4,5-tetrahydrobenzo[b][1,4]oxazepin-3-yl)-N^2-phenethyloxalamide]	A (A: ≥90%)	100 to 500 nM
50 to 74%	CN1C(=O)[C@@H](NC(=O)C(=O)NCc2ccccc2F)COc2ccc(C#CCCO)cc21 [Example 38, (S)—N^1-(2-fluorobenzyl)-N^2-(7-(4-hydroxybut-1-yn-1-yl)-5-methyl-4-oxo-2,3,4,5-tetrahydrobenzo[b][1,4]oxazepin-3-yl)oxalamide]	A (A: ≥90%)	100 to 500 nM
